{
  "source": "patent US10052305B2",
  "about": "“Lipoic acid and derivatives thereof for the treatment of cystinuria” (Buck Institute for Research on Aging, priority 2015, dated 2018)",
  "format_in_all_cases": "in vivo",
  "key": {"Slc3a1−/− mice [1]": {"test_system": "Slc3a1−/− mice", "test": "Prevention of cystine stone formation in a genetic mouse model of cystinuria, evaluated by micro-computed tomography (μCT)", "description": "A genetic mouse model of cystinuria was used to study the formation of cystine urinary stones. Mice lacking the gene Slc3a1 (Slc3a1^−/−) were fed a diet supplemented with 0.5% (±)-α-lipoic acid and evaluated for the formation of cystine stones using micro-computed tomography (μCT). […] On average, mice treated with lipoic acid developed much smaller cystine stones (mm^3). This experiment was repeated again (Experiment 2) with similar results; none (0 out of 6) of the lipoic acid treated cystinuric mice developed stones while all control, non-treated mice (8 out of 8) had developed urinary stones had developed stones by day 27 of the study."}, "Slc3a1−/− mice [2]": {"test_system": "Slc3a1−/− mice", "test": "Effect on cystine urinary stone growth tracked by μCT after switch to a lipoic acid diet", "settings": "Slc3a1−/− mice on standard diet, switched on day 54 to diet with 0.5% (±)-α-lipoic acid; before vs after treatment", "description": "To evaluate the effect of lipoic acid on cystine urinary stone growth, stone development was tracked by micro-computed tomography (μCT) in Slc3a1^−/− mice fed a standard diet. On day 54 of the study, the mice were switched onto a diet supplemented with 0.5% (±)-α-lipoic acid."}, "[3]": {"test": "Real time food and water intake in metabolic cages", "settings": "Slc3a1−/− mice; 0.5% (±)-α-lipoic acid diet vs standard diet; 3 days after 3 days of acclimation", "procedure": "Real time food and water intake was measured in Slc3a1^−/− mice treated with 0.5% (±)-α-lipoic acid supplemented diet by group housing in metabolic cages. Mice were acclimated to the metabolic cage environment for 3 days and then evaluated for food and water intake for the subsequent 3 days."}},
  "data": [
    {"compound": "O=C(O)CCCCC1CCSS1", "note": "(racemic) [Lipoic acid, (±)-α-lipoic acid]", "values": [
      {"measurement": "mice that developed stones", "setting": "Slc3a1−/− mice [1]; Experiment 2 (repeat), by day 27 of the study, non-treated mice 8 out of 8", "value": "0 out of 6"},
      {"measurement": "average cystine stone size vs non-treated mice", "setting": "Slc3a1−/− mice [1]; first experiment (FIG. 2), diet supplemented with 0.5% (±)-α-lipoic acid", "value": "much smaller"},
      {"measurement": "mice that developed cystine stones", "setting": "Slc3a1−/− mice [1]; first experiment (FIG. 2), diet supplemented with 0.5% (±)-α-lipoic acid, non-treated mice 7/7", "value": "2 out of 8"},
      {"measurement": "decrease of the rate of stone volume accumulation (mm^3/day)", "setting": "Slc3a1−/− mice [2]", "value": 90, "unit": "%"},
      {"measurement": "light cycle, dark cycle, or total food intake", "setting": "[3]", "value": "did not especially alter"},
      {"measurement": "light cycle, dark cycle, or total water intake", "setting": "[3]", "value": "did not especially alter"}
    ]}
  ]
}
